Target: T1, human PAH with the R408W mutation (Homo sapiens, UniProt P00439, R408W)
T1 construct: expressed in transfected cells
T1 sequence (P00439 1-452 R408W): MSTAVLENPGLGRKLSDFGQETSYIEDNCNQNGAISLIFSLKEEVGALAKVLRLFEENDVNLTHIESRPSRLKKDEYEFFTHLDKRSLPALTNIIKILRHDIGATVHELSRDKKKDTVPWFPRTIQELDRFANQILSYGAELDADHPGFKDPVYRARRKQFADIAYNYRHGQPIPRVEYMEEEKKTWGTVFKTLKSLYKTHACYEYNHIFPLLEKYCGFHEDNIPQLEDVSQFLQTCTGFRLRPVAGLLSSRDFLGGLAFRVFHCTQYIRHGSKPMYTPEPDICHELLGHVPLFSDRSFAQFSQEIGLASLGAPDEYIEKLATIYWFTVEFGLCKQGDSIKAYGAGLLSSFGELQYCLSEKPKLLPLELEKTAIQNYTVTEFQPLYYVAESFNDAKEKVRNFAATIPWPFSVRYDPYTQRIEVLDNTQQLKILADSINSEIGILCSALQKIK
Assay: Cell Based Phenylalanine Flux Assay
Conditions: A375 cells expressing human R408W PAH; 24 hrs compound incubation; 13C-Tyrosine by LC-MS; average where tested multiple times; read-out: AC50
Protocol: Compounds were resuspended in DMSO, and 2-fold serial dilutions were performed to generate a 10-point dose curve. Compounds were added to plated cells in a total volume of 100 pal, and a final DMSO concentration of 0.5%. Each compound was tested in duplicate. Following compound addition, cells were placed in a 5% CO2, 37° C. tissue culture incubator for 24 hrs. After the incubation period, 20 μM sepiapterin and 800 μM 13C9,15N-Phenylalanine were added. After 4 hours, cell media was removed. An aliquot of 10 μl of cell media was combined with 200 μl of extraction buffer (80% acetonitrile/20% H2O) for each well. Determination of ^13C-Tyrosine concentration was assessed by liquid chromatography mass spectrometry.

Row | SMILES | AC50
1 | O=C(c1oc(C2CC(F)(F)C2)nc1C(F)F)N1CCc2[nH]cnc2C1c1ccc2ccccc2n1 (stereo in doubt) [Example 71, (R)-(2-(3,3-difluorocyclobutyl)-4-(difluoromethyl)oxazol-5-yl)(4-(quinolin-2-yl)-6,7-dihydro-1H-imidazo[4,5-c]pyridin-5(4H)-yl)methanone] | < 500 nM
2 | O=C(c1cncs1)N1CCc2[nH]cnc2C1c1ccc2ccccc2n1 (stereo in doubt) [Example 5, (R)-(4-(quinolin-2-yl)-6,7-dihydro-1H-imidazo[4,5-c]pyridin-5(4H)-yl)(thiazol-5-yl)methanone] | 500 to 1000 nM
3 | O=C(c1nnc(-c2cc[nH]n2)o1)N1CCc2[nH]cnc2[C@@H]1c1ncc2ccccc2n1 [Example 176, (R)-(5-(1H-pyrazol-3-yl)-1,3,4-oxadiazol-2-yl)(4-(quinazolin-2-yl)-6,7-dihydro-1H-imidazo[4,5-c]pyridin-5(4H)-yl)methanone] | > 5000 nM
4 | O=C(c1oc(-c2ccccn2)nc1C1CC1)N1CCc2[nH]cnc2C1c1ccc2ccccc2n1 (stereo in doubt) [Example 43, (R)-(4-cyclopropyl-2-(pyridin-2-yl)oxazol-5-yl)(4-(quinolin-2-yl)-6,7-dihydro-1H-imidazo[4,5-c]pyridin-5(4H)-yl)methanone] | < 500 nM
5 | CC(C)(C#N)c1nc(C(F)F)c(C(=O)N2CCc3[nH]cnc3C2c2ccc3ccccc3n2)o1 (stereo in doubt) [Example 127, (S)-2-(4-(difluoromethyl)-5-(4-(quinolin-2-yl)-4,5,6,7-tetrahydro-1H-imidazo[4,5-c]pyridine-5-carbonyl)oxazol-2-yl)-2-methylpropanenitrile] | 1000 to 5000 nM
6 | O=C(c1nnc(C2CC2)o1)N1CCc2[nH]cnc2C1c1ccc2ccccc2n1 (stereo in doubt) [Example 9, (R)-(5-cyclopropyl-1,3,4-oxadiazol-2-yl)(4-(quinolin-2-yl)-6,7-dihydro-1H-imidazo[4,5-c]pyridin-5(4H)-yl)methanone] | 500 to 1000 nM
7 | O=C(c1nnc(-c2ccc(F)cc2F)o1)N1CCc2[nH]cnc2C1c1ccc2ccccc2n1 (stereo in doubt) [Example 76, (S)-(5-(2,4-difluorophenyl)-1,3,4-oxadiazol-2-yl)(4-(quinolin-2-yl)-6,7-dihydro-1H-imidazo[4,5-c]pyridin-5(4H)-yl)methanone] | > 5000 nM
8 | Cn1ccc(-c2nnc(C(=O)N3CCc4[nH]cnc4[C@@H]3c3ncc4ccccc4n3)o2)n1 [Example 166, (R)-(5-(1-methyl-1H-pyrazol-3-yl)-1,3,4-oxadiazol-2-yl)(4-(quinazolin-2-yl)-6,7-dihydro-1H-imidazo[4,5-c]pyridin-5(4H)-yl)methanone] | 1000 to 5000 nM

Further lines, results first:

Row | AC50 | SMILES
9 | < 500 nM | C[C@@H]1CN(C(=O)c2nnc(C(C)(C)C)o2)[C@H](c2cc3ccccc3cn2)c2nc[nH]c21 [Example 430, (5-(tert-butyl)-1,3,4-oxadiazol-2-yl)((4R,7R)-4-(isoquinolin-3-yl)-7-methyl-6,7-dihydro-1H-imidazo[4,5-c]pyridin-5(4H)-yl)methanone]
10 | < 500 nM | O=C(c1nnc(-c2ccccc2)s1)N1CCc2[nH]cnc2[C@H]1c1cc2ccccc2cn1 [Example 364, (R)-(4-(isoquinolin-3-yl)-6,7-dihydro-1H-imidazo[4,5-c]pyridin-5(4H)-yl)(5-phenyl-1,3,4-thiadiazol-2-yl)methanone]
11 | 500 to 1000 nM | Cc1nnc(C(=O)N2CCc3[nH]cnc3[C@H]2c2cc3ccccc3cn2)s1 [Example 361, (R)-(4-(isoquinolin-3-yl)-6,7-dihydro-1H-imidazo[4,5-c]pyridin-5(4H)-yl)(5-methyl-1,3,4-thiadiazol-2-yl)methanone]
12 | > 5000 nM | Cc1nc(-c2ccccn2)oc1C(=O)N1C[C@H](C)c2[nH]cnc2[C@@H]1c1cc2ccccc2cn1 [Example 404, ((4S,7S)-4-(isoquinolin-3-yl)-7-methyl-6,7-dihydro-1H-imidazo[4,5-c]pyridin-5(4H)-yl)(4-methyl-2-(pyridin-2-yl)oxazol-5-yl)methanone]

Source: patent US20250262201A1, “COMPOUNDS AND METHODS USEFUL FOR STABILIZING PHENYLALANINE HYDROXYLASE MUTATIONS” (Agios Pharmaceuticals, Inc., priority 2022, published 2025)
